Read-outs that look alike come from different tables or passages of the source.
Assays:
[1] = Predicted hepatic clearance, dog; format: in vitro ADME
Experimental: The diluted fraction unbound (fu2) in brain was calculated in the same manner by using brain homogenate rather than plasma. Undiluted fraction unbound for the brain was calculated using […]
Equation 5 Determination of fraction unbound in brain. Fu2 represents the diluted fraction […]
Intrinsic clearance: Human or rat hepatic microsomes (0.5 mg/mL) and 1 µM test compound were incubated in 100 mM potassium phosphate pH 7.4 buffer with 3 mM MgCl2 at 37 °C with constant shaking. After a 5 min preincubation, the reaction was initiated by the addition of NADPH (1 mM). At selected time intervals (0, 3, 7, 15, 25, and 45 min), aliquots were taken and subsequently placed into a 96-well plate containing cold acetonitrile with internal standard (50 ng/mL carbamazepine). Plates were then centrifuged at 3000 rcf (4 °C) for 10 min, and the supernatant was transferred to a separate 96-well plate and diluted 1:1 with water for LC/MS/MS analysis. The in vitro half-life ( 1/2, min, Eq. 1), intrinsic clearance (CLint, mL/min/kg, Eq. 2), and subsequent predicted hepatic clearance (CLhep, mL/min/kg, Eq. 3) was determined employing the […]
Samples were analyzed on a Thermo Electron TSQ Quantum Ultra triple quad mass spectrometer (San Jose, CA) via electrospray ionization (ESI) with two Themo Electron Accella pumps (San Jose, CA), and a Leap Technologies CTC PAL autosampler (Carrboro, NC). […]

[2] = In vivo rat MET ID (plasma)
Experimental: The team was still puzzled by the severe cholinergic adverse events observed in rats at the 100 and 300 mg/kg arms of the dose escalation study, as this was not consistent with the past 20 years of M1 PAM research. Could the N-demethylated metabolite A (24) be responsible? Due to the disconnect between liver S9 and hepatocytes, we felt it was prudent to examine in vivo rat MET ID at doses of 100 and 300 mg/kg to ensure 24 is produced upon in vivo oral dosing after 5–30 min and 160–240 min, and to determine if any other putative metabolites are generated at detectable levels (Figure 10). Across both doses and time points, 73–81% of the parent 11 remained. Metabolite 24 was produced in vivo at 2.2 to 5.6% relative abundance and lower than from in vitro incubations, along with two oxidative metabolites, a dioxygenated species M461 (26) and a mono-oxygenated species M445 (27) on the tetrahydropyranyl moiety. […] A species such as 27 would resemble the hydroxy pyranyl congeners known to be potent ago-PAMs and prone to severe cholinergic side effects, and the potential for 24 to elicit similar cholinergic toxicity was unknown.

[3] = IV/PO pharmacokinetics, NHP; format: in vivo; settings: NHP (cyno); for clearance / Vd / half-life: cynomolgus monkey, plasma, 1 mg/kg; for clearance: read-out: CLp; for Vd: read-out: Vss; for half-life: read-out: elimination t1/2 (converted)
Excerpt: We next conducted multispecies IV/PO PK in parallel as a potential discerning data set.

[4] = Plasma protein binding, dog; format: in vitro ADME; settings: pH 7.4, read-out: fu,plasma dog
Experimental: Plasma protein binding and Brain homogenate binding: Determination of fraction unbound (f u) in plasma was conducted in vitro via equilibrium dialysis using HTDialysis (HTD) membrane plates. The top half of the plate was filled with 100 uL of Dubelco’s Phosphate Buffered Saline, pH 7.4 (DPBS). Compounds were diluted into plasma from each species (5 µM final concentration), which was aliquoted in triplicate to the ‘bottom half’ of the prepared HTD plate wells. The HTD plate was sealed and incubated for 6 hours at 37 °C. Following incubation, each well (both top and bottom halves) were transferred (20 µL) to the corresponding wells of a 96-shallow-well (V-bottom) plate. […]
The unbound fraction (f u) was calculated following the equation below, and mean values for each species were calculated from 3 replicates.
A similar approach was used to determine the degree of brain homogenate binding, which employed the same methodology and procedure with the following modifications: 1) a final compound concentration of 1 μM was used, 2) naïve rat brains were homogenized in DPBS (1:3 composition of brain: DPBS, w/w) using a Mini-Bead Beater™ machine in order to obtain brain homogenate, which was then treated in the same manner as the plasma samples in the previously described plasma protein binding assay. Fraction unbound for both plasma and brain samples was determined using Equation 4. […]

Compound | Predicted CLhep, dog [1] | Relative Abundance (%) ([2]; 11 dosed 100mg, 5-30 min) | Relative Abundance (%) ([2]; 11 dosed 100mg, 60-240 min) | Relative Abundance (%) ([2]; 11 dosed 300mg, 5-30 min) | Relative Abundance (%) ([2]; 11 dosed 300mg, 160-240 min) | F (%) po ([3]; dose iv/po 1/5 mg/kg) | clearance ([3]; dose iv/po 1/5 mg/kg) | Vd ([3]; dose iv/po 1/5 mg/kg) | half-life ([3]; dose iv/po 1/5 mg/kg) | fraction unbound at 6 h, 5 µM [4] | F (%) po ([3]; dose iv/po 1/3 mg/kg) | clearance ([3]; dose iv/po 1/3 mg/kg) | Vd ([3]; dose iv/po 1/3 mg/kg) | half-life ([3]; dose iv/po 1/3 mg/kg)
Cn1ccc(-c2ccc(Cc3cc(C(=O)NC4CCOCC4)nc4ccn(C)c34)cc2)n1 [compound 11] | 14 mL/min/kg | 81.0% | 74.0% | 79.4% | 73.1% | 59% | 5.9 mL/min/kg | 0.39 L/kg | 1 h | 0.06 |  |  |  | 
Cn1ccc(-c2ccc(Cc3cc(C(=O)NC4CCOCC4)nc4ccsc34)cc2)n1 [compound 12] | 16 mL/min/kg |  |  |  |  |  |  |  |  | 0.018 | 79% | 2.3 mL/min/kg | 0.7 L/kg | 4.5 h
Cn1ccc2nc(C(=O)NC3CCOCC3)cc(Cc3ccc(-c4cc[nH]n4)cc3)c21 [compound 24] |  | 2.2% | 5.6% | 1.7% | 3.2% |  |  |  |  |  |  |  |  | 

Source: publication PMC11413853, “Discovery of VU6007496: Challenges in the Development of an M1 Positive Allosteric Modulator Backup Candidate” (ACS Chemical Neuroscience, 2024)
